The text below walks through data of US20100099756A1, “USES OF INCENSOLE, INCENSOLE ACETATE AND DERIVATIVES THEREOF” (YISSUM RESEARCH DEVELOPMENT COMPANY OF THE HEBREW …, priority 2006, published 2010).

One experiment concerns the target T1, mouse TRPV3-YFP (Mus musculus, UniProt Q8K424).
T1 construct: expressed in transfected cells
T1 sequence (Q8K424 1-791): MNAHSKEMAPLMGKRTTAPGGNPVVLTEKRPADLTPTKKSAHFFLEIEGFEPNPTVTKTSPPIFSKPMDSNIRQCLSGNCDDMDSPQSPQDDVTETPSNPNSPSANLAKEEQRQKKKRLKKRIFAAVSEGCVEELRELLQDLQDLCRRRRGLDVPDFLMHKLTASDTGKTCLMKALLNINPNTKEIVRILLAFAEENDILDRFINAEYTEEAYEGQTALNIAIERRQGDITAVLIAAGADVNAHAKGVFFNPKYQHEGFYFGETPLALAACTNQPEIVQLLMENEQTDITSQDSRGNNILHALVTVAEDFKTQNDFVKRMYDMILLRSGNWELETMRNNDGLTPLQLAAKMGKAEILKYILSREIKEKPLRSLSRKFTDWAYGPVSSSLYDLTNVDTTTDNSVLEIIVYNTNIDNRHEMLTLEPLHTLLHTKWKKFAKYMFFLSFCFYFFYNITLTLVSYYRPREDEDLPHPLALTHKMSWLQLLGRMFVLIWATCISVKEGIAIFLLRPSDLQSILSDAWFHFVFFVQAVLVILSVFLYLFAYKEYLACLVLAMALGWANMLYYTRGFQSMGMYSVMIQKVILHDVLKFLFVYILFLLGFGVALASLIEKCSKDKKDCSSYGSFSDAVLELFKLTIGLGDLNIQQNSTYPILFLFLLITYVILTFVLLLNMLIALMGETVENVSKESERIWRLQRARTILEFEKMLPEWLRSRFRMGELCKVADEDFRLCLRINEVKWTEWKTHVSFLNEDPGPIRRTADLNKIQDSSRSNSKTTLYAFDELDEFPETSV
Briefly: Whole-cell voltage-clamp, TRPV3-YFP expressing HEK293 cells. To be noted: IA 200 μM; 2-APB 100 μM; charge −85 to −45 mV. It is filed as cell-based. The procedure: Electrophysiological recording. Currents were recorded using whole-cell voltage-clamp. Pipettes were pulled from microcapillary glass (A-M Systems). A coverslip containing cells was transferred to a 300 μL chamber that was constantly perfused (1-2 mL/min) with external solution. Voltage protocols were generated and data were digitized and recorded using Pulse (HEKA Elektronik) software in conjunction with an Axopatch 200A amplifier (Axon Instruments), and the data analyzed using an in-house Visual Basic (Microsoft) analysis program.
The external solution contained (in mM): 120 NaCl, 5 KCl, 1 MgCl2, 2 CaCl2, 10 Glucose and 20 HEPES, pH 7.4 with NaOH. The measured charge (pC) was defined as the charge elicited between -85 and -45 mV by a ramping voltage stimulus (−85 mV to +35 mV, 0.54 mV/msec; holding potential -55 mV). Currents were sampled at 5 kHz. Experimental and control cells were alternated whenever possible. Control values were obtained from adjacent cells with no detectable YFP fluorescence, presumed to be non-TRPV3-expressing.

The next experiment relates to closed head injury. Briefly: Tissue edema formation (tissue water content) after CHI. The format is in vivo, mice. To be noted: left (ipsilateral) hemisphere, 24 h after injury; P=0.15 vs vehicle.
The test system of another experiment is c-Fos. Briefly: c-Fos immunoreactivity in mouse brain. It is filed as in vivo, female Sabra mice. Particulars: 50 mg/kg i.p., 60 min after administration. The text has this: The drawings were modified from plates 30; 38,45, 89 respectively from Paxinos and Franklin (2001). The atlas sections are arranged from anterior a to posterior d. The number under each section indicates its distance (mm) from the bregma. “A” is anterior to bregma and “P” is posterior to bregma.
For analysis of c-Fos immunoreactivity, positive nuclei were identified based on their round form and optical density at least twice that of background. The numbers of c-Fos immunoreactive nuclei from the right and left hemispheres were averaged to obtain a representative number for the given region from each mouse. Student t tests were performed comparing the control (vehicle) with the IA group.
The effect of IA on different brain regions were studied by looking at the effect of IA on c-Fos immunoreactivity in mice brains 60 min after administration of IA (50 mg/kg; i.p.). The c-Fos transcription factor is a product of an immediate early gene and its increase serves as a marker of enhanced neuronal activity. It is thus used in histological sections to map out brain regions that are activated or attenuated after treatment with psychoactive drugs [Werme, M., Ringholm, A., Olson, L. & Brene S. Differential patterns of induction of NGFI-B, Norl and c-fos mRNAs in striatal subregions by haloperidol and clozapine. Brain Res. 863, 112-119 (2000); and Dragunow, M., Robertson, G. S., Faull, R. L., Robertson, H. A. & Jansen, K. D2 dopamine receptor antagonists induce fos and related proteins in rat striatal neurons. (1990) Neuroscience 37, 287-294]. […] The central nucleus of the amygdala and the lateral septum play major roles in the expression of emotions [Thompson, B. L. & Rosen, J. B. Immediate-early gene expression in the central nucleus of the amygdala is not specific for anxiolytic or anxiogenic drugs. Neuropharmacology 50, 57-68 (2006); and Henry, B., Vale, W. & Markou, A. The effect of lateral septum corticotropin-releasing factor receptor 2 activation on anxiety is modulated by stress. J. Neurosci. 26, 9142-9152 (2006)]; it is assumed that c-Fos expression in the central nucleus of the amygdala is due to circuits that are engaged by both anxiolytic and anxiogenic drugs [Thompson, B. L. & Rosen, J. B. Immediate-early gene expression in the central nucleus of the amygdala is not specific for anxiolytic or anxiogenic drugs. Neuropharmacology 50, 57-68 (2006).]

The test system of another experiment is immobility. Briefly: Porsolt forced swimming test. The format is in vivo, female Sabra mice. To be noted: recorded over 9 minutes, 50 mg/kg i.p.
For a further experiment, the target named is TRPV1 (Homo sapiens, UniProt Q8NER1). Briefly: Calcium imaging of TRPV1-transfected HEK293 cells. Particulars: IA 100 μM, compared to vehicle. It is filed as cell-based. The procedure: All error bars indicate SEM; p values in all subfigures but c represent analysis with one-way ANOVA Bonferroni's post hoc.
Human HEK 293 cells stably expressing TRPV1 were a kind gift from Merck Research Laboratories (Whitehouse Station, N.J.). Cells were cultured in minimal essential medium, Eagle, modified with non-essential amino acids, 1 mM sodium pyruvate, 2 mM L-glutamine and 1.5 g/L sodium bicarbonate (ATCC, Mabassas, Va.), containing 1% Penicillin-streptomycin, and 10% foetal bovine serum. Cells were passaged three times a week using Trypsin-EDTA 1× (Invitrogen, Carlsbad, Calif.) and grown under 5% CO2 at 37° C.
Calcium imaging of HEK 293 cells. TRPV1, TRPV3, and TRPV4 expressing HEK293 cells were plated 24-48 h before imaging in 96 well plates, loaded with 3 μM Fura-2 AM and imaged as previously described [O'dell, D. K., Rimmerman, N., Pickens, S. R. & Walker J. M. Fatty acyl amides of endogenous tetrahydroisoquinolines are active at the recombinant human TRPV1 receptor. […] Med. Chem. 15, 6164-6169 (2007)].

Chain of TRPV1 (Q8NER1 whole entry): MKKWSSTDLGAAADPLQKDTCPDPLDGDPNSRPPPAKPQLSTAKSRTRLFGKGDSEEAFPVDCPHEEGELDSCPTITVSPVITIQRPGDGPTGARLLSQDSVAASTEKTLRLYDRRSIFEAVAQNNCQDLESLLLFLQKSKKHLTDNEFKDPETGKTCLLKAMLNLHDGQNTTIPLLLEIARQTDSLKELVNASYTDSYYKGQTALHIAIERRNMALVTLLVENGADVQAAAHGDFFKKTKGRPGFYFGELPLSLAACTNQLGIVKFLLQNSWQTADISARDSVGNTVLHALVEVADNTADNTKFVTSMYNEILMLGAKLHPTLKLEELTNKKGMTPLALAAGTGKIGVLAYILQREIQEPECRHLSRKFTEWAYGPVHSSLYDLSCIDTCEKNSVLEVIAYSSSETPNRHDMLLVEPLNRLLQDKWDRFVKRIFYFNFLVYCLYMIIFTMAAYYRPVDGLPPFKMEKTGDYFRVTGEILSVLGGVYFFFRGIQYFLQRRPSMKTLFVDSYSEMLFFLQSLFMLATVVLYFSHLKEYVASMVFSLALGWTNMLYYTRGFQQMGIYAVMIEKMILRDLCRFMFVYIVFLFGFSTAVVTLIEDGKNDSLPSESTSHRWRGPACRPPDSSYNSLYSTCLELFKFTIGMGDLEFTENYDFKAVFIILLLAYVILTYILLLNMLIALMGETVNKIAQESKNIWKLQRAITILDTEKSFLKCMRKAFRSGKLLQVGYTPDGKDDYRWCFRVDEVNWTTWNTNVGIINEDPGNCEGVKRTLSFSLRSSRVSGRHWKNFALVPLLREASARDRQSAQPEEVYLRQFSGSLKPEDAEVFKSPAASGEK

In the case of `CC(=O)OC1CC/C(C)=C/CC/C(C)=C/CC2(C(C)C)CCC1(C)O2` (stereo not shown) [IA, incensole acetate], the “current activation in TRPV3(+) HEK293 cells” value on mouse TRPV3-YFP is listed as “activation of currents”. The tissue water content with closed head injury amounted to 81.47±0.35%. Moreover, in the experiment on c-Fos, the “c-Fos in the central nucleus of the amygdala” value is reported as “significantly increased c-Fos”, the “c-Fos in the hippocampal CA3 region” value is on record as “significantly reducing c-Fos”, the “c-Fos in the lateral septum” value is listed as “significantly increased c-Fos” and the “c-Fos in the medial striatum” value is on record as “significantly reducing c-Fos”. Moreover, in the experiment on c-Fos, the “c-Fos in the motor cortex” value is reported as “significantly reducing c-Fos” and the “c-Fos in the solitary nucleus” value is listed as “significantly increased c-Fos”. Further, the “immobility in the Porsolt forced-swim test” value with immobility is given as “significantly reduced the immobility”. Besides, at TRPV1, the “calcium influx in TRPV1-transfected HEK293 cells” value is “very small influx of calcium”.
